# From publication PMC3492951 (Journal of the American Chemical Society, 2011)
# How the values were obtained:
# [1] = target: PRMT1 (Homo sapiens, UniProt Q99873); test: PRMT1 enzyme inhibition; type: biochemical; details: read-out: Ki PRMT1; competitive inhibitors
# [2] = target: T1, G9a (Homo sapiens, UniProt Q96KQ7); test: G9a enzyme inhibition; type: biochemical
# T1 sequence (Q96KQ7 1-1210): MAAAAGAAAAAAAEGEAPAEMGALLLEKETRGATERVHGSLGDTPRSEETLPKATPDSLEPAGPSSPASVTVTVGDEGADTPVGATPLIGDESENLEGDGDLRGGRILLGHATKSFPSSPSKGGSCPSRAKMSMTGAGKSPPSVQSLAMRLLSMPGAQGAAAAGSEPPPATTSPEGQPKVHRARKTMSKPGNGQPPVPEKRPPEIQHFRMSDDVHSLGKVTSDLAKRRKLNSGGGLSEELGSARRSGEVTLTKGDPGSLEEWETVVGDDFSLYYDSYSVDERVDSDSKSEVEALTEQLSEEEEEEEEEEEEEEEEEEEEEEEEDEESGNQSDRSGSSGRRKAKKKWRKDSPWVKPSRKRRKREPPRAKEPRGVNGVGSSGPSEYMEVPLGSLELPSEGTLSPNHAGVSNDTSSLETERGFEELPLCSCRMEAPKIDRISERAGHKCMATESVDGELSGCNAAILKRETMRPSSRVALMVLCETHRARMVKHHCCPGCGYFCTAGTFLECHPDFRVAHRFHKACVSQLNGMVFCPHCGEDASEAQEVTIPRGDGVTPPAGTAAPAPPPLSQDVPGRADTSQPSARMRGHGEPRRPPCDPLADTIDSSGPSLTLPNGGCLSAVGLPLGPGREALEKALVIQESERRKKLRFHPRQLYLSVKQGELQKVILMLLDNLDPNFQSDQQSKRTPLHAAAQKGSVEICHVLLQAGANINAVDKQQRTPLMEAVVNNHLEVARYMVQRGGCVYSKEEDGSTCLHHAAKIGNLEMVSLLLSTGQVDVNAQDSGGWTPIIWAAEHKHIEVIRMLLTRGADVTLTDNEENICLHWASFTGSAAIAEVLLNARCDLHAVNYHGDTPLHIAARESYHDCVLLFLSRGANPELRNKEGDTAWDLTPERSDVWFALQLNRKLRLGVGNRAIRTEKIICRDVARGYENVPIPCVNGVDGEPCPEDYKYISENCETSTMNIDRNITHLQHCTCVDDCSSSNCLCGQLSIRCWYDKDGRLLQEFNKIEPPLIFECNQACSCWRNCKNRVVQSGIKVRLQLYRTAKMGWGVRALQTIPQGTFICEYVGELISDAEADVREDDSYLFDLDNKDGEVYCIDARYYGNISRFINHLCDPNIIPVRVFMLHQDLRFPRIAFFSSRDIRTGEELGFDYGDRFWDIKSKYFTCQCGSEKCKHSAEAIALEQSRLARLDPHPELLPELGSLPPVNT
# [3] = target: T2, CARM1 (also known as PRMT4) (Homo sapiens, UniProt Q86X55); test: CARM1 enzyme inhibition; type: biochemical; details: read-out: Ki CARM1; competitive inhibitors
# T2 sequence (Q86X55 1-608): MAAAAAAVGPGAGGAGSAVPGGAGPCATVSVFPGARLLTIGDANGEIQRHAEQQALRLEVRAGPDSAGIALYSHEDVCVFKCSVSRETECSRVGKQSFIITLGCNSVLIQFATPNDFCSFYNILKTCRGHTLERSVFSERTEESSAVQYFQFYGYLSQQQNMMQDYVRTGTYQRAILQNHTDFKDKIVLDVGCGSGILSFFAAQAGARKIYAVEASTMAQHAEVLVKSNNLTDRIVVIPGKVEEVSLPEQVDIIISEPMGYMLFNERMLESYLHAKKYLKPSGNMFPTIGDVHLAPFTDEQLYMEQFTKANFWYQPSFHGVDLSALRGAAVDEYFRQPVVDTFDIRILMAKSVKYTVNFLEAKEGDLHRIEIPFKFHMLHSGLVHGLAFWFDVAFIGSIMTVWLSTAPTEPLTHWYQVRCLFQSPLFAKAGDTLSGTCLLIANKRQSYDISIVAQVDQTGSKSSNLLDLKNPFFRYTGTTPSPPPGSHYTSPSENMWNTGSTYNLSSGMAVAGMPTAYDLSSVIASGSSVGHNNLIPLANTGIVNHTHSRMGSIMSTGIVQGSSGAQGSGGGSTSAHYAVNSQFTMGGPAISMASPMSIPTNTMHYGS
# [4] = system: SAH hydrolase; details: in cells / in vivo; cited from earlier work
# Sequence of PRMT1 (Q99873 whole entry, species assumed): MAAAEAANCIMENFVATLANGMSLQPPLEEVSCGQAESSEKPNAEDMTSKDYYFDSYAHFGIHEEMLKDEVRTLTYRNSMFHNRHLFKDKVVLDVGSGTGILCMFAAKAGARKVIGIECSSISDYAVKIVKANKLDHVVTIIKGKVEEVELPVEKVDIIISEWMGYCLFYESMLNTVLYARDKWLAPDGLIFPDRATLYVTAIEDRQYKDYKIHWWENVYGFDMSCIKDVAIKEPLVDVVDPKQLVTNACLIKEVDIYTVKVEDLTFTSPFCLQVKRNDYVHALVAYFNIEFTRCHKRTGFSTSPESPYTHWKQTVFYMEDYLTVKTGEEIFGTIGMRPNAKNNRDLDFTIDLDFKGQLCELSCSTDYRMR
Ki [1] [µM],activity on G9a [2],"Ki ([2]; read-out: Ki G9a, competitive inhibitors) [µM]",Ki [3] [µM],Structure (SMILES),degradation to adenosine and homocysteine by SAH hydrolase [4]
21.2,inactive,> 100,18,"N[C@@H](CCSC[C@H]1O[C@@H](n2cnc3c(NCc4ccccc4)ncnc32)[C@H](O)[C@@H]1O)C(=O)O [Compound 2, N6-benzyl-SAH]",
,,,,"Nc1ncnc2c1ncn2[C@@H]1O[C@H](CSCC[C@H](N)C(=O)O)[C@@H](O)[C@H]1O [SAH, S-(5'-adenosyl)-L-homocysteine]",quickly degraded
